Assay results as given in patent US20260028348A1, “MODULATORS OF TNF-ALPHA ACTIVITY” (Forward Therapeutics, Inc., priority 2023, published 2026).

Tested on: HEK Blue™ TNFα reporter cells
Test: TNF-α Induced HEK Blue Cellular Assay
Assay type: cell-based
Conditions: TNF-α stimulated HEK Blue TNFα reporter cells, 24 hrs, secreted alkaline phosphatase (QUANTI-Blue, 620 nm)
Method: Test articles were diluted in DMSO and serially diluted into 384 well assay plate (Corning 3765), at final concentrations ranging from […] to 0.5 nM. HEK Blue™ TNFα reporter cells were added at a final density of 10,000 cell per well in assay media [DMEM (Gibco, cat #21063-029), 10% fetal bovine serum (ExcelBio, cat #FND500), 1% Penicillin-Streptomycin (Solarbio, cat #P1400-100]. TNF-α (R&D 210-TA-020/CF) was then added to the assay plate at a final concentration of […]. This plate was then incubated for 24 hrs at 37° C. and 5% CO2. Secreted alkaline phosphatase expression was then measured using QUANTI-Blue™(Invivogen), according to manufacturer instructions and read on an Envision microplate reader at 620 nm.
Inhibition data for test compound over a range of concentration was plotted as percentage inhibition of the test compound (100%=maximum inhibition). IC50 values were determined after correcting for background [(sample read-mean of low control)/(mean of high control-mean of low control)] whereby the low control is DMSO without stimulation and high control is DMSO with stimulation. The IC50 is defined as the concentration of test compound which produces […] and was quantified using the 4 parameter logistic equation to fit the data.

With `CC1(O)CCc2cc(-c3ccc4nc5n(c4c3)[C@@H]3C[C@H]5NC(=O)c4cccc(OC(F)F)c43)cnc21` (stereo partly drawn) [Example 3, (1R,11R)-18-(difluoromethoxy)-5-{7-hydroxy-7-methyl-5H,6H-cyclopenta[b]pyridin-3-yl}-2,9,12-triazapentacyclo[9.8.1.0^{2,10}.0^{3,8}.0^{14,19}]icosa-3(8),4,6,9,14(19),15,17-heptaen-13-one] the IC50 was < 100 nM.

In the case of `N[C@H]1COc2cc(-c3ccc4nc5n(c4c3)[C@@H]3C[C@H]5NC(=O)c4cccc(OC(F)F)c43)ccc21` [Example 4, (1R,11R)-5-[(3R)-3-amino-2,3-dihydro-1-benzofuran-6-yl]-18-(difluoromethoxy)-2,9,12-triazapentacyclo[9.8.1.0^{2,10}.0^{3,8}.0^{14,19}]icosa-3(8),4,6,9,14(19),15,17-heptaen-13-one], the IC50 is reported as < 100 nM.

For `CN1C(=O)c2cccc(OC(F)F)c2[C@H]2C[C@@H]1c1nc3ccc(-c4ccc5c(c4)OC[C@@H]5N)cc3n12` [Example 5, (1R,11R)-5-[(3R)-3-amino-2,3-dihydro-1-benzofuran-6-yl]-18-(difluoromethoxy)-12-methyl-2,9,12-triazapentacyclo[9.8.1.0^{2,10}.0^{3,8}.0^{14,19}]icosa-3(8),4,6,9,14(19),15,17-heptaen-13-one], the IC50 was < 100 nM.

With `N[C@H]1CCc2cc(-c3ccc4nc5n(c4c3)[C@@H]3C[C@H]5NC(=O)c4cccc(OC(F)F)c43)ccc21` [Example 6, (1R,11R)-5-[(1S)-1-amino-2,3-dihydro-1H-inden-5-yl]-18-(difluoromethoxy)-2,9,12-triazapentacyclo[9.8.1.0^{2,10}.0^{3,8}.0^{14,19}]icosa-3(8),4,6,9,14(19),15,17-heptaen-13-one] the IC50 was < 100 nM.

`CN1C(=O)c2cccc(OC(F)F)c2[C@H]2C[C@@H]1c1nc3ccc(-c4cc(F)c5c(c4)CC[C@@H]5N)cc3n12` [Example 7, (1R,11R)-5-[(1S)-1-amino-7-fluoro-2,3-dihydro-1H-inden-5-yl]-18-(difluoromethoxy)-12-methyl-2,9,12-triazapentacyclo[9.8.1.0^{2,10}.0^{3,8}.0^{14,19}]icosa-3(8),4,6,9,14(19),15,17-heptaen-13-one] was tested, and the IC50 was < 100 nM.

In the case of `CN1C(=O)c2cccc(OC(F)F)c2[C@H]2C[C@@H]1c1nc3ccc(-c4cnc5c(c4)CCC5=O)cc3n12` [Example 8, (1R,11R)-18-(difluoromethoxy)-12-methyl-5-{7-oxo-5H,6H-cyclopenta[b]pyridin-3-yl}-2,9,12-triazapentacyclo[9.8.1.0^{2,10}.0^{3,8}.0^{14,19}]icosa-3(8),4,6,9,14(19),15,17-heptaen-13-one], the IC50 is reported as < 100 nM.

For `CN1C(=O)c2cccc(OC(F)F)c2[C@H]2C[C@@H]1c1nc3ccc(-c4ccc5c(c4)CC[C@H]5N)cc3n12` [Example 9, (1R,11R)-5-[(1R)-1-amino-2,3-dihydro-1H-inden-5-yl]-18-(difluoromethoxy)-12-methyl-2,9,12-triazapentacyclo[9.8.1.0^{2,10}.0^{3,8}.0^{14,19}]icosa-3(8),4,6,9,14(19),15,17-heptaen-13-one], the IC50 was < 100 nM.

With `CN1C(=O)c2cccc(OC(F)F)c2[C@H]2C[C@@H]1c1nc3ccc(-c4ccc5c(c4)OCC[C@@H]5N)cc3n12` [Example 10, (1R,11R)-5-[(4S)-4-amino-3,4-dihydro-2H-1-benzopyran-7-yl]-18-(difluoromethoxy)-12-methyl-2,9,12-triazapentacyclo[9.8.1.0^{2,10}.0^{3,8}.0^{14,19}]icosa-3(8),4,6,9,14(19),15,17-heptaen-13-one] the IC50 was < 100 nM.

With `N[C@H]1CCc2cc(-c3ccc4nc5n(c4c3)[C@@H]3C[C@H]5NC(=O)c4cccc(OC(F)F)c43)cc(F)c21` [Example 13, (1R,11R)-5-[(1S)-1-amino-7-fluoro-2,3-dihydro-1H-inden-5-yl]-18-(difluoromethoxy)-2,9,12-triazapentacyclo[9.8.1.0^{2,10}.0^{3,8}.0^{14,19}]icosa-3(8),4,6,9,14(19),15,17-heptaen-13-one] the IC50 was < 100 nM.

`N[C@H]1COc2cc(-c3ccc4nc5n(c4c3)[C@@H]3C[C@H]5N(C4CC4)C(=O)c4cccc(OC(F)F)c43)ccc21` [Example 14, (1R,11R)-5-[(3R)-3-amino-2,3-dihydro-1-benzofuran-6-yl]-12-cyclopropyl-18-(difluoromethoxy)-2,9,12-triazapentacyclo[9.8.1.0^{2,10}.0^{3,8}.0^{14,19}]icosa-3(8),4,6,9,14(19),15,17-heptaen-13-one] was tested, and the IC50 was < 100 nM.

For `CN1C(=O)c2cccc(OC(F)F)c2[C@H]2C[C@@H]1c1nc3ccc(-c4ccc5c(c4)CC[C@@H]5O)cc3n12` [Example 15, (1R,11R)-18-(difluoromethoxy)-5-[(1S)-1-hydroxy-2,3-dihydro-1H-inden-5-yl]-12-methyl-2,9,12-triazapentacyclo[9.8.1.0^{2,10}.0^{3,8}.0^{14,19}]icosa-3(8),4,6,9,14(19),15,17-heptaen-13-one], the IC50 was < 100 nM.

Work on `CN1C(=O)c2cccc(OC(F)F)c2[C@H]2C[C@@H]1c1nc3ccc(-c4cnc5c(c4)CNC5=O)cc3n12` [Example 18, (1R,11R)-18-(difluoromethoxy)-12-methyl-5-{7-oxo-5H,6H-pyrrolo[3,4-b]pyridin-3-yl}-2,9,12-triazapentacyclo[9.8.1.0^{2,10}.0^{3,8}.0^{14,19}]icosa-3(8),4,6,9,14(19),15,17-heptaen-13-one] yielded an IC50 of 100 to 1000 nM.

With `CN1C(=O)c2cccc(OC(F)F)c2[C@H]2C[C@@H]1c1nc3ccc(-c4cnc5c(c4)OCC[C@@H]5N)cc3n12` [Example 19, (1R,11R)-5-[(4S)-4-amino-2H,3H,4H-pyrano[3,2-b]pyridin-7-yl]-18-(difluoromethoxy)-12-methyl-2,9,12-triazapentacyclo[9.8.1.0^{2,10}.0^{3,8}.0^{14,19}]icosa-3(8),4,6,9,14(19),15,17-heptaen-13-one] the IC50 was < 100 nM.

In the case of `CN1Cc2cc(-c3ccc4nc5n(c4c3)[C@@H]3C[C@H]5N(C)C(=O)c4cccc(OC(F)F)c43)cnc2C1=O` [Example 20, (1R,11R)-18-(difluoromethoxy)-12-methyl-5-{6-methyl-7-oxo-5H-pyrrolo[3,4-b]pyridin-3-yl}-2,9,12-triazapentacyclo[9.8.1.0^{2,10}.0^{3,8}.0^{14,19}]icosa-3(8),4,6,9,14(19),15,17-heptaen-13-one], the IC50 is reported as < 100 nM.

In the case of `CN1C(=O)c2cccc(OC(F)F)c2[C@H]2C[C@@H]1c1nc3ccc(-c4ccc5c(c4)NC(=O)C5(C)O)cc3n12` (stereo partly drawn) [Example 21, (1R,11R)-18-(difluoromethoxy)-5-(3-hydroxy-3-methyl-2-oxo-1H-indol-6-yl)-12-methyl-2,9,12-triazapentacyclo[9.8.1.0^{2,10}.0^{3,8}.0^{14,19}]icosa-3(8),4,6,9,14(19),15,17-heptaen-13-one], the IC50 is reported as < 100 nM.

`CN1C(=O)c2cccc(OC(F)F)c2[C@H]2C[C@@H]1c1nc3ccc(-c4ccc5c(c4)OCCC5(C)N)cc3n12` (stereo partly drawn) [Example 24, (1R,11R)-5-(4-amino-4-methyl-2,3-dihydro-1-benzopyran-7-yl)-18-(difluoromethoxy)-12-methyl-2,9,12-triazapentacyclo[9.8.1.0^{2,10}.0^{3,8}.0^{14,19}]icosa-3(8),4,6,9,14(19),15,17-heptaen-13-one] was tested, and the IC50 was < 100 nM.

With `CN1C(=O)c2cccc(OC(F)F)c2[C@H]2C[C@@H]1c1nc3cc(F)c(-c4cnc5c(c4)CCC5(C)N)cc3n12` (stereo partly drawn) [Example 27, (1R,11R)-5-{7-amino-7-methyl-5H,6H-cyclopenta[b]pyridin-3-yl}-18-(difluoromethoxy)-6-fluoro-12-methyl-2,9,12-triazapentacyclo[9.8.1.0^{2,10}.0^{3,8}.0^{14,19}]icosa-3(8),4,6,9,14(19),15,17-heptaen-13-one; formic acid] the IC50 was < 100 nM.

In the case of `[2H]C([2H])([2H])N1C(=O)c2cccc(OC(F)F)c2[C@H]2C[C@@H]1c1nc3ccc(-c4cnc5c(c4)OCC[C@@H]5N)cc3n12` [Example 30, (7R,14R)-11-((S)-4-amino-3,4-dihydro-2H-pyrano[3,2-b]pyridin-7-yl)-1-(difluoromethoxy)-6-(methyl-d3)-6,7-dihydro-7,14-methanobenzo[f]benzo[4,5]imidazo[1,2-a][1,4]diazocin-5(14H)-one], the IC50 is reported as < 100 nM.

In the case of `CN1C(=O)c2cccc(OC(F)F)c2[C@H]2C[C@@H]1c1nc3ccc(-c4ccc5c(c4)NC(=O)C5(C)N)cc3n12` (stereo partly drawn) [Example 31, (7R,14R)-11-(3-amino-3-methyl-2-oxoindolin-6-yl)-1-(difluoromethoxy)-6-methyl-6,7-dihydro-7,14-methanobenzo[f]benzo[4,5]imidazo[1,2-a][1,4]diazocin-5(14H)-one], the IC50 is reported as < 100 nM.

With `[2H]C([2H])([2H])N1C(=O)c2cccc(OC(F)F)c2[C@H]2C[C@@H]1c1nc3ccc(-c4cnc5c(c4)OCC5(C)O)cc3n12` (stereo partly drawn) [Example 44, (7R,14R)-1-(difluoromethoxy)-11-(3-hydroxy-3-methyl-2,3-dihydrofuro[3,2-b]pyridin-6-yl)-6-(methyl-d3)-6,7-dihydro-7,14-methanobenzo[f]benzo[4,5]imidazo[1,2-a][1,4]diazocin-5(14H)-one] the IC50 was < 100 nM.

With `[2H]C([2H])([2H])N1C(=O)c2cccc(OC(F)F)c2[C@H]2C[C@@H]1c1nc3ccc(-c4cnc5c(c4)COCC5(C)N)cc3n12` (stereo partly drawn) [Example 45, (7R,14R)-11-(8-amino-8-methyl-7,8-dihydro-5H-pyrano[4,3-b]pyridin-3-yl)-1-(difluoromethoxy)-6-(methyl-d3)-6,7-dihydro-7,14-methanobenzo[f]benzo[4,5]imidazo[1,2-a][1,4]diazocin-5(14H)-one] the IC50 was 100 to 1000 nM.
